These results are taken from publication PMC3991664, “Growth Inhibitory, Bactericidal, and Morphostructural Effects of Dehydrocostus Lactone from Magnolia sieboldii Leaves on Antibiotic-Susceptible and -Resistant Strains of Helicobacter pylori” (PLoS ONE, 2014).

The target in the assay is T1, urease (UreB subunit) (Helicobacter pylori, UniProt P69996).
T1 construct: native crude urease of H. pylori ATCC 43504 (UreA and UreB subunits); with UreA (urease subunit)
As to the kind of experiment: urease activity inhibition in crude urease preparation, indophenol (ammonia release) assay; Western blot of subunits. The assay is classed as biochemical. A general note: Immunoblotting shows a protein as a band on a membrane.

T1 sequence (P69996 whole entry): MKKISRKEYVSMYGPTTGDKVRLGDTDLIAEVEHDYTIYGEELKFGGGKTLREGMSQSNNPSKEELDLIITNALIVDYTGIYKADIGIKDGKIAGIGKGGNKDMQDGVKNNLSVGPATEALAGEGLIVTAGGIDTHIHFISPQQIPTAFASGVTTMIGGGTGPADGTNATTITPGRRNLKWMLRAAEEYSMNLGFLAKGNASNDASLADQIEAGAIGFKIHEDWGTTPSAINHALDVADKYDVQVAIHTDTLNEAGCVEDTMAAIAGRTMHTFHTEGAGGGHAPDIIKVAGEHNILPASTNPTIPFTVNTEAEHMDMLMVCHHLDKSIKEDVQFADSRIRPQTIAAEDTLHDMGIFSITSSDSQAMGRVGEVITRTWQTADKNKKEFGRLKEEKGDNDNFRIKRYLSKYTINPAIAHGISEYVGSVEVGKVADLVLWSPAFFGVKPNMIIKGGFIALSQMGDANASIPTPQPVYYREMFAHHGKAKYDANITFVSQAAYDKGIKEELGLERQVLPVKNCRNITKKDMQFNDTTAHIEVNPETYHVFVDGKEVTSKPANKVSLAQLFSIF

As usually defined, the IC50 is the midpoint of a concentration-inhibition curve. The low end stands for inhibition by little substance, the high end for a need for much substance. `O=C(O[C@@H]1Cc2c(O)cc(O)cc2O[C@@H]1c1cc(O)c(O)c(O)c1)c1cc(O)c(O)c(O)c1` [(–)-epigallocatechin gallate]: the IC50 was determined as 30 µM.
